Laboratory results published in US12350273B2, “Treatment of SMA” (Hoffmann-La Roche Inc., priority 2017, dated 2025).

Columns and labels:
retina = conditions: monkey, in vivo
Source text: Over the in-life duration of the 39-week monkey toxicity study with RO7034067, the low dose remained free of any test-item related changes in sdOCT and ERG until the last week of assessment (week 35).

SMN protein = SMN protein (HTRF) in brain and quadriceps muscle of SMNΔ7 mice; type: in vivo
Experimental: FIG. 1A-FIG. 1D: Increase in SMN Protein Expression In Vivo • HET=heterogygous. • C/C-allele mice and SMNΔ7 mice were treated with RO7034067. One hour after the last dose, brains and quadriceps muscles were collected and levels of SMN protein were assessed by HTRF. FIG. 1A. SMN protein in brains of C/C-allele mice. FIG. 1B. SMN protein in brains of SMNΔ7 mice. FIG. 1C. SMN protein in quadriceps muscle of C/C-allele mice. FIG. 1D. SMN protein in quadriceps muscle of SMNΔ7 mice. Data represent means±SEM of 5-6 animals per group and are expressed as fold change vs. vehicle-treated controls. *=p<0.05, **=p<0.01, ***=p<0.001 vs. untreated controls.
Adult C/C-allele mice were treated for 10 days with vehicle or RO7034067 (1, 3 or 10 mg/kg per os [PO], daily), and PND3 SMNΔ7 mice were treated for 7 days with vehicle or RO7034067 (0.1, 0.3, 1 or 3 mg/kg intraperitoneal [IP], daily). […] In SMNΔ7 mice, the SMN protein increase was only partial in both brain and muscle, reaching approximately 43% (brain) and 55% (muscle) of protein levels in heterozygous mice.

human iPSCs = assay: Cell cycle analysis of human iPSCs (flow cytometry); type: cell-based; conditions: for percentage of events in G1 phase, mean / percentage of events in G2 phase, mean / percentage of events in S phase, mean: 24 h
Experimental: For the analysis of the cell cycle, monkey stem cells were detached with Accutase (Stem Cell Technologies) and plated at 15000 cells/cm2 in 6 well plates coated with Matrigel (BD Biosciences) in MT medium supplemented with 10 ng/ml ActivinA, 15 ng/ml FGF2, and 10 μM Rock inhibitor. Cells were expanded for 1 day and then synchronized by starvation for 7 h in MT medium without supplements FGF2 and ActivinA. Before flow cytometry, cells were incubated for 24 h with fresh MT medium containing supplements FGF2 and ActivinA and test items at 80 nM, 400 nM, and 2000 nM or 30 nM rapamycin as positive control to arrest cells in G1 phase. Human stem cells were detached with Accutase (Stem Cell Technologies) and plated at 40000 cells/cm2 in 6 well plates coated with Matrigel (BD Biosciences) in mTeSR1 supplemented with 10 μM Rock Inhibitor Y-27632 (Sigma-Aldrich). Cells were expanded for 3 days with daily medium change. Since human iPSCs lose their properties during starvation by growth factor withdrawal, stem cells were synchronized with 200 ng/ml Nocodazole (Sigma-Aldrich) for 5 h and washed subsequently 2 times with mTesR1 Medium. Before flow cytometry, cells were incubated for 24 h with fresh TesR1 medium containing test items at 80 nM, 400 nM, and 2000 nM or 30 nM rapamycin as positive control to arrest cells in G1 phase.
For cell cycle analysis, human iPSCs were washed with PBS, detached with Accutase (Stem Cell Technologies) and collected by centrifugation. Cells were stained for 1 h at 37° C. with 600 ul of 7 AAD/Saponin/RNAse mix ([…] 7 AAD (#559925, BD), 50 μg/ml RNase, and 0.03% Saponin dissolved in FACS buffer (PBS, 5% FBS, 10 mM Hepes)). Cynomolgus monkey iPSCs were washed with PBS, detached with Accutase (Stem Cell Technologies) and collected by centrifugation. Cells were stained for 30 min at 37° C. in 300 ul standard MT medium (with FGF2 and ActivinA) containing 1 ul Vybrant Dye Cycle Violet Stain (#V35003, 1000× stock, Invitrogen) per ml medium. Additionally 2 ul 7 AAD (50 μg/ml 7 AAD) were added without permeabilization to label dead cells; cells were incubated for 10 min at 37° C. Flow cytometry analysis was performed using a Canto II cytometer (BD Biosciences) and data were analysed with the FlowJo software.

Q: Which results are given for Cc1cn2nc(-c3cc(=O)n4cc(N5CCNC6(CC6)C5)ccc4n3)cc(C)c2n1 [RO7034067, 7-(4,7-diazaspiro[2.5]octan-7-yl)-2-(2,8-dimethylimidazo[1,2-b]pyridazin-6-yl)pyrido[1,2-a]pyrimidin-4-one]?
A: individual AUC0-24h exposures without retina changes (retina): up to 15,100 ng·h/mL; SMN protein in brain as share of protein levels in heterozygous mice (SMN protein; SMNΔ7 mice, brain): approximately 43%; SMN protein in muscle as share of protein levels in heterozygous mice (SMN protein; SMNΔ7 mice, muscle): ~55%; SMN protein levels in brain and muscle tissue, maximum effect (SMN protein; neonatal SMNΔ7 mice, 1-3 mg/kg IP daily, 7 days): 2-3 fold; increase in SMN protein possible (SMN protein; severe SMNΔ7 mouse model): more than 100%; percentage of events in G1 phase, mean (human iPSCs; 80 nM): 44.6%; percentage of events in G2 phase, mean (human iPSCs; 80 nM): 29.2%; percentage of events in S phase, mean (human iPSCs; 80 nM): 26.2%; percentage of events in G1 phase, mean (human iPSCs; 400 nM): 40.8%; percentage of events in G2 phase, mean (human iPSCs; 400 nM): 31.4%; percentage of events in S phase, mean (human iPSCs; 400 nM): 27.8%; percentage of events in G1 phase, mean (human iPSCs; 2000 nM): 37.6%; percentage of events in G2 phase, mean (human iPSCs; 2000 nM): 29.3%; percentage of events in S phase, mean (human iPSCs; 2000 nM): 33.1%; effect on cell cycle (human iPSCs; concentration-dependent): cell cycle arrest in S phase
